Experiments:
[1] = tested on: Triticum aestivum; assay: Drought stress in vivo analysis Part B, appearance vs stressed control plants in categories; parameters: key: 0: no positive effect; +: slight positive effect; ++: clear positive effect; +++: strong positive effect
Experimental: (§1) Seeds of monocotyledonous and dicotyledonous crop plants were sown in sandy loam in plastic pots, covered with soil or sand and cultivated in a greenhouse under good growth conditions. The test plants are treated at the early leaf stage (BBCH10-BBCH13). To assure uniform water supply before commencement of stress, the potted plants were supplied with water by dam irrigation prior to substance application. The inventive compounds were first formulated as wettable powders (WP) or dissolved in a solvent mixture. The further dilution was effected with water supplemented with 0.2% wetting agent (e.g. agrotin). The finished spray liquor was sprayed onto the green parts of the plant at an equivalent water application rate of 600 I/ha. Substance application was followed immediately by stress treatment of the plants. Drought Stress was Induced by Gradual Drying Out Under the Following Conditions: “Day”: 14 hours with illumination at […]-30° C. “Night”: 10 hours without illumination at 18-20° C. The duration of the respective stress phases was guided mainly by the condition of the stressed control plants. It was ended (by re-irrigating and transfer to a greenhouse with good growth conditions) as soon as irreversible damage was observed on the stressed control plants. The end of the stress phase was followed by an about 4-7-day recovery phase, during which the plants were once again kept under good growth conditions in a greenhouse. The duration of the recovery phase was guided mainly by when the trial plants had attained a state which enabled visual scoring of potential effects, and was therefore variable. Once this juncture had been reached, the appearance of the plants treated with test substances was recorded in comparison to the stressed control plants by the following categories: [table] In order to rule out any influence on the effects observed by any fungicidal or insecticidal action of the test compounds, it was additionally ensured that the tests proceeded without fungal infection or insect infestation. The values reported in tables B-1 and […] below are mean values of the results from at least three repeats. Effects of selected compounds of the general formula (I) under drought stress according to the following tables B-1 and B-2: BRSNS=Brassica napus ZEAMX=Zea mays TRZAS=Triticum aestivum

[2] = tested on: Brassica napus; assay: as above; parameters: key: 0: no positive effect; +: slight positive effect; ++: clear positive effect; +++: strong positive effect
Experimental: as §1

[3] = tested on: Zea mays; assay: Drought stress in vivo analysis, efficacy EF from visually scored damage intensity; conditions: scored after recovery phase
Experimental: (§2) Seeds of monocotyledonous and dicotyledonous crop plants were sown in sandy loam in wood-fiber or plastic pots, covered with soil or sand and cultivated in a greenhouse under good growth conditions. The trial plants were treated at the early leaf stage (BBCH10-BBCH13). To assure uniform water supply before commencement of stress, the potted plants were supplied with water by dam irrigation prior to substance application. The inventive compounds formulated in the form of wettable powders (WP) were sprayed onto the green parts of the plants as an aqueous suspension at an equivalent water application rate of 600 I/ha with addition of 0.2% wetting agent (e.g. agrotin). Substance application was followed immediately by stress treatment of the plants. For this purpose, the wood-fiber pots were transferred in plastic inserts in order to prevent them from subsequently drying out too quickly. Drought Stress was Induced by Gradual Drying Out Under the Following Conditions: “Day”: 14 hours with illumination at ˜26-30° C. “Night”: 10 hours without illumination at ˜18-20° C. The duration of the respective stress phases was guided mainly by the condition of the stressed control plants. It was ended (by re-irrigating and transfer to a greenhouse with good growth conditions) as soon as irreversible damage was observed on the stressed control plants. The end of the stress phase was followed by an about 4-7-day recovery phase, during which the plants were once again kept under good growth conditions in a greenhouse. The duration of the recovery phase was guided mainly by when the trial plants had attained a state which enabled visual scoring of potential effects, and is therefore variable. Once this juncture was reached, the intensities of damage were scored visually in comparison to untreated, unstressed controls of the same age. The damage intensity was at first assessed in percent. These values were then used to calculate the efficacy of the test compounds by the following formula: [formula] EF: Efficacy DIs: Damage intensity of the stressed control plants DIh: Damage intensity of the stressed plants treated with test compound The values reported in tables A-1 to A-3 below are mean values from at least one trial with at least two repeats. The effects of selected compounds of the general formula (I) under drought stress on various crop plants were measured. BRSNS=Brassica napus ZEAMX=Zea mays TRZAS=Triticum aestivum

[4] = tested on: Triticum aestivum; assay: as above; conditions: scored after recovery phase
Experimental: as §2

SMILES | Effect (BRSNS) ([2]; spray 250 g/ha) | Effect (TRZAS) ([1]; spray 250 g/ha) | other results
CN(C)N(Cc1ccc(F)cc1F)C(=O)c1c(C(F)(F)F)nn(C)c1Cl [Compound A1-15] |  |  | Effect (TRZAS) ([1]; spray 25 g/ha): +; Effect (BRSNS) ([2]; spray 25 g/ha): ++
CN(C)N(Cc1ccccc1C#N)C(=O)c1c(C(F)(F)F)nn(C)c1F [Compound A2-61] |  |  | Effect (TRZAS) ([1]; spray 25 g/ha): +; Effect (BRSNS) ([2]; spray 25 g/ha): ++
COc1cc(OC)nc(CN(C(=O)c2c(C(F)F)nn(C)c2F)N(C)C)n1 [Compound A5-30] |  |  | EF [%] (ZEAMX) ([3]; spray 25 g/ha): >5%
CN(C(=O)OC(C)(C)C)N(Cc1ccccc1Cl)C(=O)c1c(C(F)F)nn(C)c1F [Compound A13-1] | ++ |  | 
Cn1cc(C(=O)N(Cc2ccccc2Cl)N2CCCC2)c(C(F)F)n1 [Compound A20-1] | + |  | 
CNN(Cc1ccccc1Cl)C(=O)c1c(C(F)F)nn(C)c1F [Compound A22-1] | + | + | 
CCn1nc(C(F)F)c(C(=O)N(Cc2nccc(Cl)c2Cl)N2CCCC2)c1F [Compound A24-40] | + | + | 
CN(C)N(Cc1ccccc1Cl)C(=O)c1ccsc1 [Compound B2-1] |  |  | EF [%] (TRZAS) ([4]; spray 250 g/ha): >5%; EF [%] (ZEAMX) ([3]; spray 25 g/ha): >5%
CN(C)N(Cc1ccccn1)C(=O)c1ccsc1 [Compound B2-21] |  |  | EF [%] (TRZAS) ([4]; spray 25 g/ha): >5%; EF [%] (ZEAMX) ([3]; spray 250 g/ha): >5%
CN(C)N(Cc1nccc(Cl)c1Cl)C(=O)c1ccsc1C(F)F [Compound B3-40] | + |  | 
CN(C)N(Cc1ccccc1C#N)C(=O)c1ccco1 [Compound C1-61] |  |  | EF [%] (ZEAMX) ([3]; spray 250 g/ha): >5%
Cc1nc(-c2cccnc2)sc1C(=O)N(Cc1ccccc1Cl)N(C)C [Compound D1-1] |  | + | Effect (BRSNS) ([2]; spray 25 g/ha): +
Cc1nc(-c2cccnc2)sc1C(=O)N(Cc1ccccn1)N1CCCC1 [Compound D2-21] |  |  | Effect (BRSNS) ([2]; spray 25 g/ha): +
CN(C)N(Cc1ccccc1Cl)C(=O)c1sc(Cl)nc1Cl [Compound D6-1] |  |  | Effect (BRSNS) ([2]; spray 25 g/ha): +
CN(C)N(Cc1cccc(Cl)c1Cl)C(=O)c1sc(Cl)nc1Cl [Compound D6-4] |  |  | Effect (TRZAS) ([1]; spray 25 g/ha): +; Effect (BRSNS) ([2]; spray 25 g/ha): +
CN(C)N(Cc1ccccc1F)C(=O)c1sc(Cl)nc1Cl [Compound D6-11] | + |  | Effect (TRZAS) ([1]; spray 25 g/ha): +
CN(C)N(Cc1ccccc1C#N)C(=O)c1sc(Cl)nc1Cl [Compound D6-61] | + |  | Effect (TRZAS) ([1]; spray 25 g/ha): +
CN(C)N(Cc1cccc(Cl)c1Cl)C(=O)c1snc(Cl)c1Cl [Compound E1-4] | + |  | 
CCN(CC)N(Cc1ccccc1C#N)C(=O)c1snc(Cl)c1Cl [Compound E2-61] | + |  | 
Cc1nnsc1C(=O)N(Cc1cccc(Cl)c1Cl)N(C)C [Compound F1-4] | + | + | 
Cc1nnsc1C(=O)N(Cc1ccc(Cl)nc1)N(C)C [Compound F1-94] | + |  | 
CC(C)c1nnsc1C(=O)N(Cc1cccc(Cl)c1Cl)N(C)C [Compound F2-4] | + |  | 
CC(C)c1nnsc1C(=O)N(Cc1nccc(Cl)c1Cl)N(C)C [Compound F2-40] | + |  | 
CC(C)c1nnsc1C(=O)N(Cc1ccccc1C#N)N(C)C [Compound F2-61, 4-Isopropyl-N′,N′-dimethyl-N-(2-cyanobenzyl)-1,2,3-thiadiazole-5-carbohydrazide] | + | + | 
CN(C)N(Cc1cccc(Cl)c1)C(=O)c1snc(N)c1Cl [Compound G1-2] |  |  | Effect (BRSNS) ([2]; spray 25 g/ha): +
CN(C)N(Cc1ccccc1Cl)C(=O)c1ccns1 [Compound G8-1] | + | + | 
CN(C)N(Cc1ccccc1F)C(=O)c1ccns1 [Compound G8-11] |  |  | Effect (BRSNS) ([2]; spray 25 g/ha): +

SMILES | Effect (BRSNS) ([2]; spray 250 g/ha) | Effect (TRZAS) ([1]; spray 250 g/ha) | other results
CN(C)N(Cc1ncc(C(F)(F)F)cc1Cl)C(=O)c1ccns1 [Compound G8-36] |  | ++ | 
CN(C)N(Cc1ccc(Cl)nc1)C(=O)c1ccns1 [Compound G8-94] |  |  | Effect (TRZAS) ([1]; spray 25 g/ha): ++; Effect (BRSNS) ([2]; spray 25 g/ha): +
O=C(c1ccns1)N(Cc1cccc(Cl)c1Cl)N1CCCC1 [Compound G9-4] | ++ |  | Effect (TRZAS) ([1]; spray 25 g/ha): ++
O=C(c1ccns1)N(Cc1ccccc1F)N1CCCC1 [Compound G9-11] | + | + | 
O=C(c1ccns1)N(Cc1ccc(F)cc1F)N1CCCC1 [Compound G9-15] |  | + | 
O=C(c1ccns1)N(Cc1ncc(C(F)(F)F)cc1Cl)N1CCCC1 [Compound G9-36] | ++ |  | Effect (TRZAS) ([1]; spray 25 g/ha): +
O=C(c1ccns1)N(Cc1ccc(Cl)nc1)N1CCCC1 [Compound G9-94] |  | ++ | 
CN(C)N(Cc1cccc(Cl)c1Cl)C(=O)c1cc(OCc2ccccc2)ns1 [Compound G10-4] | + |  | 
CN(C)N(Cc1ccccc1F)C(=O)c1cc(OCc2ccccc2)ns1 [Compound G10-11] |  | + | 
CN(C)N(Cc1ccccn1)C(=O)c1cc(OCc2ccccc2)ns1 [Compound G10-21] |  |  | Effect (TRZAS) ([1]; spray 25 g/ha): +
CN(C)N(Cc1ncc(C(F)(F)F)cc1Cl)C(=O)c1cc(OCc2ccccc2)ns1 [Compound G10-36] |  | ++ | 
CN(C)N(Cc1ccccc1C#N)C(=O)c1cc(OCc2ccccc2)ns1 [Compound G10-61] |  | + | 
CN(C)N(Cc1ccc(Cl)nc1)C(=O)c1cc(OCc2ccccc2)ns1 [Compound G10-94] | ++ |  | Effect (TRZAS) ([1]; spray 25 g/ha): +
Cc1c(OCc2ccccc2)nsc1C(=O)N(Cc1cccc(Cl)c1Cl)N(C)C [Compound G11-4] | ++ | + | 
Cc1c(OCc2ccccc2)nsc1C(=O)N(Cc1ncc(C(F)(F)F)cc1Cl)N(C)C [Compound G11-36] |  | ++ | 
Cc1c(OCc2ccccc2)nsc1C(=O)N(Cc1ccc(Cl)nc1)N(C)C [Compound G11-94] | + | + | 
CN(C)N(Cc1ccc(Cl)cc1)C(=O)c1cnsn1 [Compound H1-3] |  |  | Effect (TRZAS) ([1]; spray 25 g/ha): +; Effect (BRSNS) ([2]; spray 25 g/ha): +
CN(C)N(Cc1ccccc1F)C(=O)c1cnsn1 [Compound H1-11] | + | + | 
CN(C)N(Cc1ccccn1)C(=O)c1cnsn1 [Compound H1-21] |  |  | Effect (BRSNS) ([2]; spray 25 g/ha): +
O=C(c1cnsn1)N(Cc1ccccc1Cl)N1CCCC1 [Compound H2-1] |  | + | 
O=C(c1cnsn1)N(Cc1ccc(Cl)cc1)N1CCCC1 [Compound H2-3] |  | + | 
O=C(c1cnsn1)N(Cc1cccc(Cl)c1Cl)N1CCCC1 [Compound H2-4] | + | + | 
O=C(c1cnsn1)N(Cc1ccccc1F)N1CCCC1 [Compound H2-11] |  | + | Effect (BRSNS) ([2]; spray 25 g/ha): +
O=C(c1cnsn1)N(Cc1ccc(F)cc1F)N1CCCC1 [Compound H2-15] |  |  | Effect (TRZAS) ([1]; spray 25 g/ha): ++
O=C(c1cnsn1)N(Cc1ncc(C(F)(F)F)cc1Cl)N1CCCC1 [Compound H2-36] | ++ |  | 
N#Cc1ccccc1CN(C(=O)c1cnsn1)N1CCCC1 [Compound H2-61] |  | + | 
O=C(c1cnsn1)N(Cc1ccc(Cl)nc1)N1CCCC1 [Compound H2-94] | + | + | 

Source: patent US20180206498A1, “SUBSTITUTED HETEROARYL CARBOXYLIC ACID HYDRAZIDES OR SALTS THEREOF AND USE THEREOF TO INCREASE STRESS TOLERANCE IN PLANTS” (Bayer CropScience Aktiengesellschaft, priority 2015, published 2018)
